How the values were obtained:
colon 26 cells = test: Antitumor efficacy study, s.c. colon 26 tumors; type: in vivo, BALB/c mice; conditions: similar dose, pilot studies
Description: The antitumor effects of the prodrugs after irradiation were evaluated by using a mouse tumor model: BALB/c mice having s.c. tumors produced by injection of colon 26 cells. After 1.5 h-post i.p. injection of prodrugs, each tumor was irradiated by 690 nm diode laser (360 J/cm^2=200 mW/cm^2 for 30 min) on days 0, 1 and 2. The treatment conditions were determined from pilot studies although those conditions might not have been the optimal conditions.
Four- to six-week-old BALB/c mice (18-20 g, Charles River Laboratories, Inc.) were used for the murine tumor model. The mice were implanted s.c. with 2×10^6 colon 26 cells in PBS (100 μL) on the lower back-neck region. Tumor growth was monitored with digital caliper. Two dimensions l and w (l: the longest axis of tumor and w: the axis perpendicular to l) were used to calculate tumor volume (lw^2/2). Mice with a tumor of the diameter 3-5 mm were used for the experiments.
Samples were filtered using 0.2 μm sterile syringe filter. To each mouse, 200 μL of sample was injected via i.p. once a day on day 0, 1, and 2. Then, 1 h 30 min later mice were anesthetized with ketamine 80 mgkg^−1 and xylazine 6 mgkg^−1, i.p. injection. Tumors were irradiated with a 690 nm diode laser at 200 mW/cm^2 for 30 min (360 J/cm^2). Tumor size was measured with the digital caliper every day after the treatment.

MCF-7 cells [1] = test: Dark toxicity, MTT (Example 5); type: cell-based; conditions: Homo sapiens, MCF7, 72 h; MCF-7, dark, 3 days; read-out: IC50D (dark toxicity)
Description: It seemed that the bulky groups, CMP-L and CMP-NCL, reduced the cytotoxic activity of CA4, presumably through the interference of its binding to tubulin as estimated by the modeling study.
MCF-7 cells were maintained in minimum essential medium (α-MEM) supplemented with 10% bovine growth serum, 2 mM L-glutamine, 50 units/mL penicillin G, 50 μg/mL streptomycin and 1.0 μg/mL fungizone. MCF-7 cells (5,000 cells/well) were seeded on 96-well plates in the medium and then incubated for 24 h at 37° C. in 5% CO2. Stock solutions (2 mM) were prepared in DMSO. The stocks were further diluted with medium to get necessary final concentrations. The diluted solution (10 μL) was then added to each well (190 μL). The plates were incubated for 24 h and then removed from the incubator. For the phototoxicity study: The plate without a cover was placed on an orbital shaker (Lab-line, Barnstead International) and irradiated by using a diode laser (690 nm, 5.6 mW/cm^2) for 30 min. To ensure uniformity of the light during the irradiation, each plate was shaken gently on an orbital shaker. For the dark toxicity study: Plates were kept in the dark for 30 min, and then returned to the incubator. Cell viability was determined after 3 days by using the MTT assay. Briefly, a 10 μL solution of MTT (10 mg in 1 mL PBS buffer) was added to each well and the plate was incubated for 4 h. Then, the MTT solution was removed and the cells were dissolved in 200 μL of DMSO and the absorbance within each well was measured at 570 nm with background subtraction at 650 nm. The cell viability was then quantified by measuring the absorbance of the treated wells compared to that of the untreated wells (controls) and expressed as a percentage.

[2] = 1H-NMR of drugs and model linker compound with CMP-OMe before and after irradiation; type: physicochemical
Source text: The cleavage of aminoacrylate linkers after irradiation was supported by the increased coumarin fluorescence of 9 by irradiation (FIGS. 14-21). The unique peak of each compound was integrated against the peak of CMP-OMe (four protons of CMP-OMe at 9.7 ppm, FIG. 14), which was known to be inert to singlet oxygen oxidation. […] However, we observed 77% decrease of the proton peak of the aminoacrylate linker after the irradiation (FIG. 21). […] PD 9 had negligible coumarin emission compared to that of free coumarin at the equimolar concentration. In the presence of 10 μM of 9, MCF-7 cells were incubated for 24 h to activate dPS. Then, the samples were irradiated by visible light (540±10 nm, 8 mW/cm^2, 30 min). […] The released free coumarin was also detected and quantified by HPLC based on the standard curve of free coumarin. As such, almost 99% of 9 released coumarin while only 64% of dPS of 9 were activated when irradiated.

MCF-7 cells [3] = test: Dark toxicity, MTT cell viability (Example 4); type: cell-based; conditions: Homo sapiens, MCF7, light or radiation study; MCF-7, 96 hr, no irradiation
Description: MCF-7 cells (5,000 cells/well) were seeded in 96 well plates. After the plates were incubated for 24 hr, the culture medium was aspirated and the cells were washed with cold PBS (100 μL) once. Then, prodrug in the 200 μL culture media was added to cells. The final concentrations ranging from 1 nM to 1 μM were used to perform concentration dependent cell viability and 25 nM prodrug was used to perform time dependent drug release study. After 96 hr incubation, the cell viability was determined by MTT assay detailed below. The experiments were performed in triplicate. IC50 values were calculated with GraphPad Prism 5.
Cell viability was assessed by MIT assay.^89 In brief, after thoroughly washing the cells 2× with PBS buffer, the cells were treated with 200 μL 0.5 mg/mL MIT (3-(4,5-dimethylthiazol-2-yl)-2,5-diphenyltetrazolium bromide, a yellow tetrazole). Subsequently, the cells were incubated at 37° C. under a humidified atmosphere of 5% CO2 for 4 h. After 4 h of incubation, the solution from each well was taken out, and washed with PBS one time and added 100 μL DMSO. The plates were shaken at room temperature for 10 min and read immediately at 570 nm on a microplate reader (Spectra max, Molecular devices). Cell viability (%) was expressed as a ratio of treated cells to control cells.

tubulin = molecular target: T1, tubulin (Sus scrofa, UniProt P02554); test: Fluorescence-based tubulin polymerization assay; type: biochemical
T1 construct: purchased Cytoskeleton, Inc. BK011P
Description: Paclitaxel and CA4 were used as positive control drugs (a polymerization enhancer and an inhibitor, respectively) in addition to the negative control group (FIG. 32).
The fluorescence-based tubulin polymerization was determined by using a kit supplied by Cytoskeleton, Inc. (cat #=BK011P). Its basic principle is that the fluorescence reporter increases as it is incorporated into microtubules during the course of polymerization. The assay was performed following the experimental procedure as described in version 2.1 of the tubulin polymerization assay kit manual. Briefly, the test drug (final concentration=3 μM) was added to a mixture of tubulin and GTP in a buffer solution, and the reaction mixture was incubated at 37° C. Fluorescence was monitored (excitation=360 nm and emission=450 nm) by using a fluorescence plate reader (SpectraMax Gemini EM, Molecular device). Paclitaxel and CA4 were included in the assay as positive controls in addition to the negative control (vehicle only).

[4] = Photooxygenation kinetics (DPBF fluorescence, Rose Bengal, Stern-Volmer analysis); type: physicochemical; conditions: acetone, 15° C., 540±10 nm
Description: Fluorescence emission was used to monitor the disappearance of 1,3-diphenylisobenzofuran (DPBF) which was recorded on a LS 50 B luminescence spectrometer (Perkin Elmer, USA). DPBF (5×10^−2 M) and Rose Bengal (0.5×10^−5 M) stock solution in dry acetone was prepared. In addition, varying known concentrations of 2,3-dimethylbutene, (E)-N-phenyl-3-(piperidin-1-yl)acrylamide (a model compound with aminoacrylate linker) and Combretastatin A-4 (CA-4) were freshly prepared. Using a tungsten-halogen light source filtered at 540±10 nm (Lumacare), the appropriate solution of DPBF-Rose Bengal with or without a substrate placed in a fluorescence cuvette and held in a thermostated cell at 15° C. with stirring was irradiated with 0.1 mW/cm^2 light intensity at 30 sec interval. The fluorescence intensity of DPBF at 455 nm as a function of time provided the rate of photooxygenation of DPBF. […] As such, the reaction kinetics could be determined in light of the following analysis.
Using the above kinetic analysis and equation (5), the second order rate constant (k) of the aminoacrylate linker was experimentally determined to be 2.5×10^7 M^−1s^−1, wherein k=kr+kq
Then, β value was calculated from the plot of S0/Sx vs. [A]. […] From the kd value of the solvent (kd of acetone=38,400 s^−1), β value of A was calculated. […]

T1 sequence (P02554 whole entry): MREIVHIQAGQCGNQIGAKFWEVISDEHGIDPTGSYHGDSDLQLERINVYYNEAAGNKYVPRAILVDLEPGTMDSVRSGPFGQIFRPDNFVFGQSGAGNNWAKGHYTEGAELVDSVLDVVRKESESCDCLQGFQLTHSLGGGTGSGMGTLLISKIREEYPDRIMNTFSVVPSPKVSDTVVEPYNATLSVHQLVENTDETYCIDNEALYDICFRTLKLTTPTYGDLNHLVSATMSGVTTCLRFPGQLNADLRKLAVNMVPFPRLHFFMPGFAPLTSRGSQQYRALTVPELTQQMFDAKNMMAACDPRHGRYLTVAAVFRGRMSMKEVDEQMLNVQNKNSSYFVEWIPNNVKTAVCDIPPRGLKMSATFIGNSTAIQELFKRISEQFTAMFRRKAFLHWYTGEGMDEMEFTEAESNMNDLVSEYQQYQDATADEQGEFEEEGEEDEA
T1 sequence (P02550 whole entry partner): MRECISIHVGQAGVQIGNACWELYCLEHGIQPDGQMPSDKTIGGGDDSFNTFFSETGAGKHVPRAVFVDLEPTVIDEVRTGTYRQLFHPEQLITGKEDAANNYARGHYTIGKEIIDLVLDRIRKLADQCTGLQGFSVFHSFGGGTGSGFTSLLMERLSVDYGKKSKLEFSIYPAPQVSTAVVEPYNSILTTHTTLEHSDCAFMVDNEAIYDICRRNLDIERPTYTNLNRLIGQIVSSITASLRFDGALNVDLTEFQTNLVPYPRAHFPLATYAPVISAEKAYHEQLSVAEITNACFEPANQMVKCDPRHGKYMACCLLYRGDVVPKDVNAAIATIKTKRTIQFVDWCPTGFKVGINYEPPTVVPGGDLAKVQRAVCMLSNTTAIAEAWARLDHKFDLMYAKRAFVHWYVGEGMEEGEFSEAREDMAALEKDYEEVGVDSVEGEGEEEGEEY

| SMILES | Significant tumor growth delay by CA4 itself (colon 26 cells) | IC50 (MCF-7 cells [1]) [nM] | Oxidation under the irradiation condition ([2]; 1H-NMR) | IC50 (MCF-7 cells [3]) [nM] | Pattern of kinetic trace of tubulin polymerization (tubulin; 3 μM) | inhibition at 3 µM (tubulin; read-out: Inhibition of tubulin polymerization) [%] | Second order rate constant (k = kr+kq) with singlet oxygen [4] [M⁻¹ s⁻¹] | Decrease of the proton peak after irradiation ([2]; CDCl3, 1H-NMR) [%] |
| --- | --- | --- | --- | --- | --- | --- | --- | --- |
| COc1ccc(/C=C\c2cc(OC)c(OC)c(OC)c2)cc1O [CA-4, Combretastatin A-4] | not seen | 9 | not oxidized at all | 8 | inhibitor | 100 |  |  |
| O=C(/C=C/N1CCCCC1)Nc1ccccc1 [Compound 9 (Example 3), (E)-N-Phenyl-3-(piperidin-1-yl)acrylamide] |  |  |  |  |  |  | 2.5e+07 | 77 |
